ChEMBL document CHEMBL1122929, “6,7-Dihydro-5-[[(cis-2-hydroxy-trans-3-phenoxycyclopentyl)amino] methyl]-2-methylbenzo[b]thiophen-4(5H)-one: a novel alpha 1-adrenergic receptor antagonist and renal vasodilator” (J Med Chem, 1985)
Active and inactive are the calls of the source. No cut-off for these calls is given here.

Columns and labels:
[1] = molecular target: T1, Adrenergic receptor alpha-2 (Rattus norvegicus, UniProt P22086+P19328+P22909); assay: Ability to inhibit 50% specific binding of [3H]-p-amino clonidine radioligand to alpha-2 adrenergic receptor in rat cerebrocortex; format: tissue-based, Cortex
T1 sequence (P22086 whole entry): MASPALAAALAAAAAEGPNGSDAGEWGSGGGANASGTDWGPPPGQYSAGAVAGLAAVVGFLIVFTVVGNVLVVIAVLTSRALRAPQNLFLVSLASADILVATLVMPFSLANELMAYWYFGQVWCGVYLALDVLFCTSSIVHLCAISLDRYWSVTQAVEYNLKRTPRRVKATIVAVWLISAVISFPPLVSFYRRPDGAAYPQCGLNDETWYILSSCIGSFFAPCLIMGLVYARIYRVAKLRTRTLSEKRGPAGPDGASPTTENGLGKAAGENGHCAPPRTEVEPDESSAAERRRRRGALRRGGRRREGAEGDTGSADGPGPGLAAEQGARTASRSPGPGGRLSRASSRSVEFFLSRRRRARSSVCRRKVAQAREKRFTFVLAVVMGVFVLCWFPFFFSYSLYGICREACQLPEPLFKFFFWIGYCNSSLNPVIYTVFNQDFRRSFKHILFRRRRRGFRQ
T1 sequence (P19328 whole entry): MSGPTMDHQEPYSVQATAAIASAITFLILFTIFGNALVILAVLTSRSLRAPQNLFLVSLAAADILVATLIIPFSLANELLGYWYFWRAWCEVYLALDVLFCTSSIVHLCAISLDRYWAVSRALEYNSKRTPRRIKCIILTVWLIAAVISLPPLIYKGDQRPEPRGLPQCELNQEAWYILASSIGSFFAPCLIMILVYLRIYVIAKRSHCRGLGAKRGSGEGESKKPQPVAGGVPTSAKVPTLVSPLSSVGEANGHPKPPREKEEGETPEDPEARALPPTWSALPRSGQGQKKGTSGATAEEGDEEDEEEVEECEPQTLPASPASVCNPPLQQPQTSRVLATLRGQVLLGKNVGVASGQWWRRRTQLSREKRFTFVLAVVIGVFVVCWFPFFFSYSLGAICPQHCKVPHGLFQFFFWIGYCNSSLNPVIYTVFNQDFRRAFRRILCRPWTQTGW
T1 sequence (P22909 whole entry): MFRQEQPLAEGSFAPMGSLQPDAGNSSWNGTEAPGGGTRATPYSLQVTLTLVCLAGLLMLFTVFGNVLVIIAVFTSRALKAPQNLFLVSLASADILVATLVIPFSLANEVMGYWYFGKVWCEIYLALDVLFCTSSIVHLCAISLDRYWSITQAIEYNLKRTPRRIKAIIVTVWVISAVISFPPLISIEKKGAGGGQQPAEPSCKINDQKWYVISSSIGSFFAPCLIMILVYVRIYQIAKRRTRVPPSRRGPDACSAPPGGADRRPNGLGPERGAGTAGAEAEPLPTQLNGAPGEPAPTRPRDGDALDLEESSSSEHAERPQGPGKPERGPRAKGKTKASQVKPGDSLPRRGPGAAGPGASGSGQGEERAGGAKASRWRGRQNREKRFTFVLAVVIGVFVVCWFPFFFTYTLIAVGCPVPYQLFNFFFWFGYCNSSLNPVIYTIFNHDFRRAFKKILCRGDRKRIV

Canis familiaris [2] = organism: Canis familiaris; assay: Dose required to reduce blood pressure by 15% (ED15) was calculated.; format: functional; settings: Canis lupus familiaris
Canis familiaris [3] = assay: Mean arterial blood pressure (MABP) was evaluated in anesthetized dog after intravenous administration of 1 mg/kg of compound; format: functional, Canis lupus familiaris
Rattus norvegicus [4] = assay: Mean arterial blood pressure (MABP) was evaluated in chronically cannulated spontaneously hypertensive rats (SHR) after peroral administration 30 mg/kg of compound; […]; format: functional
[5] = molecular target: T2, Adrenergic receptor alpha-1 (Rattus norvegicus, UniProt P15823+P23944+P43140); assay: Ability to inhibit 50% specific binding of [3H]prazosin radioligand to alpha-1 adrenergic receptor in rat cerebrocortex; format: tissue-based, Cortex
T2 sequence (P15823 whole entry): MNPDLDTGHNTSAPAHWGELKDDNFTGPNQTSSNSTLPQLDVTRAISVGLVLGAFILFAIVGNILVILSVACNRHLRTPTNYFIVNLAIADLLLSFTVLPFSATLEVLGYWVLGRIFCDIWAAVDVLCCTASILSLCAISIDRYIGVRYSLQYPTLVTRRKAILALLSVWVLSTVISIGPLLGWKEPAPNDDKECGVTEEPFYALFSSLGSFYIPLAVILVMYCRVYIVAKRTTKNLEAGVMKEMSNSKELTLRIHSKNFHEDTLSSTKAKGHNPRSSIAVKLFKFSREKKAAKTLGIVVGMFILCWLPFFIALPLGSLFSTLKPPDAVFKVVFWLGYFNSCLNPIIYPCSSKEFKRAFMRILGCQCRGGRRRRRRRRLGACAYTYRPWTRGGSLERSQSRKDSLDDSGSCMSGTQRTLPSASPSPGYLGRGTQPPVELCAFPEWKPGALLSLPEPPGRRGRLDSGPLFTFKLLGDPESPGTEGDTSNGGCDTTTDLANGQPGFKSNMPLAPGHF
T2 sequence (P23944 whole entry): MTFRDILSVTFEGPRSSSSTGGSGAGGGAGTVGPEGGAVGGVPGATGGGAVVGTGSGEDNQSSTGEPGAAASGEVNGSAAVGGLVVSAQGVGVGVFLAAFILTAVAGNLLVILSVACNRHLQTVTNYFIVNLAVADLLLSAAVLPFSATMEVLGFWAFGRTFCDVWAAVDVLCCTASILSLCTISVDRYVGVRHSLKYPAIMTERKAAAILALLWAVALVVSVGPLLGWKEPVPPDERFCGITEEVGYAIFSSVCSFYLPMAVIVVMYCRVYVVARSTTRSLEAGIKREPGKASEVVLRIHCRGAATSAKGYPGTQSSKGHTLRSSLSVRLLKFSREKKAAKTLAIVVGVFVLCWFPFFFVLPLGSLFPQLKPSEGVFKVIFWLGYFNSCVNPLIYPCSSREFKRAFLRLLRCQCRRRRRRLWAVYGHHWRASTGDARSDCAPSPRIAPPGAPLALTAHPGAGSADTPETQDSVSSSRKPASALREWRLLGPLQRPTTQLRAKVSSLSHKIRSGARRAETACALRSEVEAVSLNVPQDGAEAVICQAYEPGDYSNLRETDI
T2 sequence (P43140 whole entry): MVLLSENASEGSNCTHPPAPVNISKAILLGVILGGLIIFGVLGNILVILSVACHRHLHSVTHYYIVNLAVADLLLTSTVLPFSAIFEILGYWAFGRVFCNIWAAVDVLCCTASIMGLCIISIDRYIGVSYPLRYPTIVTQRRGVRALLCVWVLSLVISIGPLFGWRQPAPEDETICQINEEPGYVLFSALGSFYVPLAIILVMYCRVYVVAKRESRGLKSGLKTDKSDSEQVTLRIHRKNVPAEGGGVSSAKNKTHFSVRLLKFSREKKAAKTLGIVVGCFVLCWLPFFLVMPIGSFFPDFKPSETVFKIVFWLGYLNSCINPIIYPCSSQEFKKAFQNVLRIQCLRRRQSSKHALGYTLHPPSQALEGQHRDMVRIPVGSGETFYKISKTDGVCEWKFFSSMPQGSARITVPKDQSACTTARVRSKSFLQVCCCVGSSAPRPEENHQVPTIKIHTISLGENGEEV

[6] = molecular target: Adrenergic receptor alpha-1 (Oryctolagus cuniculus); assay: pA2 value for phenylephrine antagonist towards at alpha-1 adrenergic receptor was determined in rabbit aorta
Canis familiaris [7] = organism: Canis familiaris; assay: Dose required to reduce blood pressure by 15% (ED15) was calculated; format: functional; settings: Canis lupus familiaris
Canis familiaris [8] = assay: Mean arterial blood pressure was determined at cumulative dose of 0.01 mg/kg in anesthetized dogs by intravenous administration after SCH 23390 pretreatment; format: functional, Canis lupus familiaris
Canis familiaris [9] = assay: Mean arterial blood pressure was determined at cumulative dose of 0.01 mg/kg in anesthetized dogs by intravenous administration after sulpiride pretreatment; format: functional, Canis lupus familiaris
Canis familiaris [10] = assay: Mean arterial blood pressure was determined at cumulative dose of 0.03 mg/kg in anesthetized dogs by intravenous administration after SCH 23390 pretreatment; format: functional, Canis lupus familiaris
Canis familiaris [11] = assay: Renal blood flow was determined at cumulative dose of 0.1 mg/kg in anesthetized dogs by intravenous administration after sulpiride pretreatment; format: functional, Canis lupus familiaris, Kidney
Canis familiaris [12] = assay: Renal blood flow was determined at cumulative dose of 0.3 mg/kg in anesthetized dogs by intravenous administration after SCH 23390 pretreatment; format: functional, Canis lupus familiaris, Kidney
Canis familiaris [13] = assay: Renal blood flow was determined at cumulative dose of 0.3 mg/kg in anesthetized dogs by intravenous administration after sulpiride pretreatment; format: functional, Canis lupus familiaris, Kidney
Canis familiaris [14] = assay: Renal blood flow was determined at cumulative dose of 1 mg/kg in anesthetized dogs by intravenous administration after SCH 23390 pretreatment; format: functional, Canis lupus familiaris, Kidney
Canis familiaris [15] = assay: Renal blood flow was determined at cumulative dose of 1 mg/kg in anesthetized dogs by intravenous administration after sulpiride pretreatment; format: functional, Canis lupus familiaris, Kidney
Canis familiaris [16] = assay: Mean arterial blood pressure was determined at cumulative dose of 0.03 mg/kg in anesthetized dogs by intravenous administration after sulpiride pretreatment; format: functional, Canis lupus familiaris
Canis familiaris [17] = assay: Mean arterial blood pressure was determined at cumulative dose of 0.1 mg/kg in anesthetized dogs by intravenous administration after SCH 23390 pretreatment; format: functional, Canis lupus familiaris
Canis familiaris [18] = assay: Mean arterial blood pressure was determined at cumulative dose of 0.1 mg/kg in anesthetized dogs by intravenous administration after sulpiride pretreatment; format: functional, Canis lupus familiaris
Canis familiaris [19] = assay: Mean arterial blood pressure was determined at cumulative dose of 0.3 mg/kg in anesthetized dogs by intravenous administration after SCH 23390 pretreatment; format: functional, Canis lupus familiaris
Canis familiaris [20] = assay: Mean arterial blood pressure was determined at cumulative dose of 0.3 mg/kg in anesthetized dogs by intravenous administration after sulpiride pretreatment; format: functional, Canis lupus familiaris
Canis familiaris [21] = assay: Mean arterial blood pressure was determined at cumulative dose of 1 mg/kg in anesthetized dogs by intravenous administration after SCH 23390 pretreatment; format: functional, Canis lupus familiaris
Canis familiaris [22] = assay: Mean arterial blood pressure was determined at cumulative dose of 1 mg/kg in anesthetized dogs by intravenous administration after sulpiride pretreatment; format: functional, Canis lupus familiaris
Canis familiaris [23] = assay: Renal blood flow was determined at cumulative dose of 0.01 mg/kg in anesthetized dogs by intravenous administration after SCH 23390 pretreatment; format: functional, Canis lupus familiaris, Kidney
Canis familiaris [24] = assay: Renal blood flow was determined at cumulative dose of 0.01 mg/kg in anesthetized dogs by intravenous administration after sulpiride pretreatment; format: functional, Canis lupus familiaris, Kidney
Canis familiaris [25] = assay: Renal blood flow was determined at cumulative dose of 0.03 mg/kg in anesthetized dogs by intravenous administration after SCH 23390 pretreatment; format: functional, Canis lupus familiaris, Kidney
Canis familiaris [26] = assay: Renal blood flow was determined at cumulative dose of 0.03 mg/kg in anesthetized dogs by intravenous administration after sulpiride pretreatment; format: functional, Canis lupus familiaris, Kidney
Canis familiaris [27] = assay: Renal blood flow was determined at cumulative dose of 0.1 mg/kg in anesthetized dogs by intravenous administration after SCH 23390 pretreatment; format: functional, Canis lupus familiaris, Kidney
Canis familiaris [28] = assay: Mean arterial blood pressure (MABP) was evaluated in anesthetized dog by intravenous administration of compound at 1 mg/kg; format: functional, Canis lupus familiaris
Rattus norvegicus [29] = assay: Mean arterial blood pressure (MABP) was evaluated in conscious hypertensive rats by peroral administration of compound at 30 mg/kg; format: functional; settings: route oral

SMILES | IC50 [1] [nM] | ED15 (Canis familiaris [2]) [mg/kg] | Max delta MABP (Canis familiaris [3]) [mmHg] | Max delta MABP (Rattus norvegicus [4]) | IC50 [5] [nM] | pA2 [6] | Max delta MABP (Rattus norvegicus [4]; route oral) [mmHg] | further results
Cc1cc2c(s1)CCC(CN[C@H]1CC[C@@H](Oc3ccccc3)[C@H]1O)C2=O (some centres not stated) | 600 | 3.3 | -16 | inactive | 55 | 7.28 |  | 
Cc1cc2c(s1)CCC(CN[C@H]1CC[C@@H](Oc3ccccc3)[C@@H]1O)C2=O (some centres not stated) | > 1000 |  | -8 | inactive | 90 | 7.04 |  | ED15 (Canis familiaris [7]): > 10 mg/kg
Cc1cc2c(s1)CCC(CN[C@@H]1CC[C@@H](Oc3ccccc3)[C@@H]1O)C2=O.Cl (some centres not stated) | 800 | 0.08 | -47 |  | 8 | 8.13 | -70 | Delta MABP (Canis familiaris [8]): -3%; Delta MABP (Canis familiaris [9]): -3%; Delta MABP (Canis familiaris [10]): -6%; Delta RBF (Canis familiaris [11]): 9%; Delta RBF (Canis familiaris [12]): -1%; Delta RBF (Canis familiaris [13]): 9%; Delta RBF (Canis familiaris [14]): -6%; Delta RBF (Canis familiaris [15]): -1%; Delta MABP (Canis familiaris [16]): -10%; Delta MABP (Canis familiaris [17]): -10%; Delta MABP (Canis familiaris [18]): -14%; Delta MABP (Canis familiaris [19]): -15%; Delta MABP (Canis familiaris [20]): -21%; Delta MABP (Canis familiaris [21]): -22%; Delta MABP (Canis familiaris [22]): -29%; Delta RBF (Canis familiaris [23]): -2%; Delta RBF (Canis familiaris [24]): 6%; Delta RBF (Canis familiaris [25]): -1%; Delta RBF (Canis familiaris [26]): 10%; Delta RBF (Canis familiaris [27]): -1%
Cc1cc2c(s1)CCC(CN[C@@H]1CC[C@@H](Oc3ccccc3)[C@H]1O)C2=O (some centres not stated) | 100 | 0.61 | -31 |  | 45 | 7.4 | -34 | 
COc1cc2nc(N3CCN(C(=O)c4ccco4)CC3)nc(N)c2cc1OC [PRAZOSIN] |  | 0.1 |  |  |  |  |  | Max delta MABP (Canis familiaris [28]): -30 mmHg; Max delta MABP (Rattus norvegicus [29]): -45 mmHg
